Test results taken from ChEMBL document CHEMBL3727370, “HM74 receptor agonists:xanthine derivatives, corresponding pharmaceutical compositions, treatment methods and processes” (2013).

Biological target: Hydroxycarboxylic acid receptor 2 (Homo sapiens, UniProt Q8TDS4)
Experiment: Agonist activity at human HM74A transfected in CHO-K1 cells for 4 hrs by [35S]-GTPgammaS binding assay
Assay type: functional, cell-based

Chain of Hydroxycarboxylic acid receptor 2 (Q8TDS4 whole entry): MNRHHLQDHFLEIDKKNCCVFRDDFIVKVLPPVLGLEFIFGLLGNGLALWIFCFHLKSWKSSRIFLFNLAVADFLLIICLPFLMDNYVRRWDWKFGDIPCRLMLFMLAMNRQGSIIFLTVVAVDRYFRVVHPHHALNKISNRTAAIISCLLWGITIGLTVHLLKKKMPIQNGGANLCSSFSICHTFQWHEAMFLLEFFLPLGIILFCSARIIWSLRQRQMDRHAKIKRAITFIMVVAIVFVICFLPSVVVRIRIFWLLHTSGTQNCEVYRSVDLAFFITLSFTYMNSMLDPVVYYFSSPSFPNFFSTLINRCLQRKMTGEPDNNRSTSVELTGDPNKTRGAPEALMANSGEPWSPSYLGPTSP

Row | EC50 | Efficacy | Structure (SMILES)
1 | < 12.6 µM | > 30% | CCCCCCCCCCn1c(=O)[nH]c(=O)c2[nH]c(Cl)nc21
2 | < 12.6 µM | > 30% | CCCn1c(=O)c2[nH]c(Cl)nc2n(CC(F)(F)F)c1=O
3 | < 12.6 µM | > 30% | N#CCn1c(=O)c2[nH]c(Cl)nc2n(CC#N)c1=O
4 | < 12.6 µM | > 30% | O=c1[nH]c(=O)n(CC2CCC2)c2nc(Cl)[nH]c12
5 | < 12.6 µM | > 30% | C=CCCCn1c(=O)[nH]c(=O)c2[nH]c(Cl)nc21
6 | < 12.6 µM | > 30% | CCCn1c(=O)n(C)c(=O)c2[nH]c(Cl)nc21
7 | < 12.6 µM | > 30% | O=c1[nH]c(=O)n(CC2CC2)c2nc(Cl)[nH]c12
8 | < 12.6 µM | > 30% | O=c1[nH]c(=O)n(CCCF)c2nc(Cl)[nH]c12
9 | < 12.6 µM | > 30% | O=c1[nH]c(=O)n(CCC2CC2)c2nc(Cl)[nH]c12
10 | < 12.6 µM | > 30% | CCCCn1c(=O)[nH]c(=O)c2[nH]c(Cl)nc21
11 | < 12.6 µM | > 30% | CCCC(C)Cn1c(=O)[nH]c(=O)c2[nH]c(Cl)nc21 (racemic)
12 | < 12.6 µM | > 30% | O=c1[nH]c(=O)n(CCC(F)(F)F)c2nc(Cl)[nH]c12
13 | < 12.6 µM | > 30% | CC(C)CCn1c(=O)[nH]c(=O)c2[nH]c(Cl)nc21
14 | < 12.6 µM | > 30% | O=c1[nH]c(=O)n(CCCC(F)(F)F)c2nc(Cl)[nH]c12
15 | < 12.6 µM | > 30% | CCCCCn1c(=O)n(C)c(=O)c2[nH]c(Br)nc21
16 | < 12.6 µM | > 30% | CCCCCCn1c(=O)[nH]c(=O)c2[nH]c(Cl)nc21
17 | < 12.6 µM | > 30% | CCCCCCn1c(=O)n(C)c(=O)c2[nH]c(Cl)nc21
18 | < 12.6 µM | > 30% | O=c1c2[nH]c(Cl)nc2n(CCCC(F)(F)F)c(=O)n1CCCC(F)(F)F
19 | < 12.6 µM | > 30% | O=c1[nH]c(=O)n(CC(F)(F)F)c2nc(Cl)[nH]c12
20 | < 12.6 µM | > 30% | CCCCn1c(=O)c2[nH]c(I)nc2n(CCCC)c1=O
21 | < 12.6 µM | > 30% | O=c1c2[nH]c(Cl)nc2n(CC(F)(F)F)c(=O)n1CCCC(F)(F)F
22 | < 12.6 µM | > 30% | CCCn1c(=O)n(CC#N)c(=O)c2[nH]c(Cl)nc21
23 | < 12.6 µM | > 30% | O=c1[nH]c(=O)n(CCC2CCC2)c2nc(Cl)[nH]c12
24 | < 12.6 µM | > 30% | C=CCCn1c(=O)[nH]c(=O)c2[nH]c(Cl)nc21
25 | < 12.6 µM | > 30% | CCC(C)CCn1c(=O)[nH]c(=O)c2[nH]c(Cl)nc21 (racemic)
26 | < 12.6 µM | > 30% | O=c1[nH]c(=O)n(CCCC2CC2)c2nc(Cl)[nH]c12
27 | < 12.6 µM | > 30% | Cn1c(=O)c2[nH]c(Cl)nc2n(CCCC(F)(F)F)c1=O

Row | EC50 | Efficacy | Structure (SMILES)
28 | – | > 30% | CCCCn1c(=O)n(C)c(=O)c2[nH]c(Cl)nc21
29 | < 12.6 µM | > 30% | Cn1c(=O)c2[nH]c(Cl)nc2n(CCCC#N)c1=O
30 | < 12.6 µM | > 30% | CC(C)CCCCCn1c(=O)[nH]c(=O)c2[nH]c(Cl)nc21
31 | < 12.6 µM | > 30% | CCCCn1c(=O)n(CC)c(=O)c2[nH]c(Cl)nc21
32 | < 12.6 µM | > 30% | O=c1[nH]c(=O)n(CCCCCCF)c2nc(Cl)[nH]c12
33 | < 12.6 µM | > 30% | O=c1[nH]c(=O)n(CCCCCF)c2nc(Cl)[nH]c12
34 | < 12.6 µM | > 30% | CCn1c(=O)n(C)c(=O)c2[nH]c(Cl)nc21
35 | < 12.6 µM | > 30% | O=c1[nH]c(=O)n(CCC2CCCCC2)c2nc(Cl)[nH]c12
36 | < 12.6 µM | > 30% | CCCCn1c(=O)n(CC#N)c(=O)c2[nH]c(Cl)nc21
37 | < 12.6 µM | > 30% | N#CCn1c(=O)[nH]c(=O)c2[nH]c(Cl)nc21
38 | < 12.6 µM | > 30% | O=c1[nH]c(=O)n(CCCCF)c2nc(Cl)[nH]c12
39 | < 12.6 µM | > 30% | CCCCn1c(=O)n(C)c(=O)c2[nH]c(C#N)nc21
40 | < 12.6 µM | > 30% | N#CCCCn1c(=O)[nH]c(=O)c2[nH]c(Cl)nc21
41 | < 12.6 µM | > 30% | CCCn1c(=O)[nH]c(=O)c2[nH]c(Cl)nc21
42 | < 12.6 µM | > 30% | CCCCn1c(=O)c2[nH]c(C#N)nc2n(CCCC)c1=O
43 | < 12.6 µM | > 30% | CCC(C)Cn1c(=O)[nH]c(=O)c2[nH]c(Cl)nc21 (racemic)
44 | < 12.6 µM | > 30% | O=c1[nH]c(=O)n(CCC2CCCC2)c2nc(Cl)[nH]c12
45 | < 12.6 µM | > 30% | CCCCCCCCn1c(=O)[nH]c(=O)c2[nH]c(Cl)nc21
46 | < 12.6 µM | > 30% | CCn1c(=O)c2[nH]c(Cl)nc2n(CC(F)(F)F)c1=O
47 | < 12.6 µM | > 30% | CCCCCn1c(=O)n(C)c(=O)c2[nH]c(C#N)nc21
48 | < 12.6 µM | > 30% | O=c1[nH]c(=O)n(CC2CCCCC2)c2nc(Cl)[nH]c12
49 | < 12.6 µM | > 30% | CC(C)CCCn1c(=O)[nH]c(=O)c2[nH]c(Cl)nc21
50 | < 12.6 µM | > 30% | O=c1[nH]c(=O)n(CC2CCCC2)c2nc(Cl)[nH]c12
51 | < 12.6 µM | > 30% | CC(C)(C#N)CCCCn1c(=O)[nH]c(=O)c2[nH]c(Cl)nc21
52 | < 12.6 µM | > 30% | N#CCn1c(=O)c2[nH]c(Cl)nc2n(CCC2CC2)c1=O
53 | < 12.6 µM | > 30% | CCCCCn1c(=O)n(C)c(=O)c2[nH]c(Cl)nc21
54 | < 12.6 µM | > 30% | CCCCCn1c(=O)[nH]c(=O)c2[nH]c(Cl)nc21
